In patent US8883793B2, “Tubulin inhibitors and methods of using the same” (Development Center for Biotechnology, priority 2010, dated 2014):

What was measured:
A549 = test: MTS assay, A549; format: cell-based; details: Homo sapiens, 72 h, read-out: IC50 from MTS assay
Protocol: (§1) MTS assay was performed in determining the growth inhibition of cancer cells. MTS ((3-(4,5-dimethylthiazol-2-yl)-5-(3-carboxymethoxyphenyl)-2-(4-sulfophenyl)-2H-tetrazolium)), in the presence of phenazine methosulfate (PMS) and reductases, produces a formazan product that has an absorbance maximum at 490-500 nm. MTS assays (and closely related MTT assay) are commonly used to measure cell viabilities or survivals.
(§2) Briefly, KB/Hela, NCI-H460, A375, Colo205, HCT-116, U937, MCF-7, MDA-MB-231, A549, H1975 cells were seeded into 96-well plate at 4000, 4000, 2000, 2000, 2000 cells/well. After 24 h for attachment, test compound was added into each well and incubated for 72 h. A total of 20 μl of MTS reaction reagent containing the MTS (Promega, Madison, Wis.) and PMS in a ratio of 20:1 was added into each well to react with dehydrogenase enzyme in survival cells. After 3 h, the absorbance at 490 nm was monitored using Emax precision microplate reader (Molecular Devices, Sunnyvale, Calif.).

Colo205 = test: MTS assay, Colo205; format: cell-based; details: Homo sapiens, COLO 205, 72 h, read-out: IC50 from MTS assay
Protocol: as §1, §2

MDA-MB-231 = test: MTS assay, MDA-MB-231; format: cell-based; details: Homo sapiens, 72 h, read-out: IC50 from MTS assay
Protocol: as §1, §2

porcine brain tubulin = test: Tubulin polymerization assay; format: biochemical; details: at 10 μM concentration
Protocol: In vitro tubulin polymerization assay was performed by using the Tubulin Polymerization Assay Kit (Cytoskeleton, Inc., Denver, Colo.) in a 96-well format, which used the polymerization of porcine brain tubulin in vitro in the presence of varying concentrations of the test compounds. Fluorescence measurements were obtained at 1-minute intervals over a 31-minute period. Fluorescent measurements were performed using excitation at 365 nm, and emission was measured at 440 nm using a Packard Fusion Alpha Microplate Analyzer. Data were analyzed as relative fluorescent units by GraphPad Prism 5 Demo.

biotinylated tubulin = test: Colchicine competitive-binding assay; details: at 10 μM concentration; 3H-colchicine; left column pair of Table 7
H1975 = test: MTS assay, H1975; format: cell-based; details: Homo sapiens, NCI-H1975, 72 h, read-out: IC50 from MTS assay
Protocol: as §1, §2

A375 = test: MTS assay, A375; format: cell-based; details: Homo sapiens, A-375, 72 h, read-out: IC50 from MTS assay
Protocol: as §1, §2

U937 = test: MTS assay, U937; format: cell-based; details: Homo sapiens, U-937, 72 h, read-out: IC50 from MTS assay
Protocol: as §1, §2

KB cell = test: MTS assay, growth inhibition of KB cells; format: cell-based; details: Homo sapiens, at 10 μM concentration, incubated for 72 h, read-out: Inhibition rate (%) (growth inhibition rate of MTS assay)
Method in brief: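 KB cells were allowed 24 h to attach before a 72 h exposure to compound at 10 μM. Viability was measured by MTS/PMS reduction, with absorbance read at 490 nm after 3 h. Values are reported as percent growth inhibition.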

Compound `COc1ccc(Sc2cnc(NC(=O)CCc3cccnc3)s2)cc1` [Compound 70, N-[5-(4-Methoxy-phenylsulfanyl)-thiazol-2-yl]-3-pyridin-3-yl-propionamide] has an IC50 (A549) of 58 nM, an IC50 (Colo205) of 68.2 nM and an IC50 (MDA-MB-231) of 182 nM. For the same compound, the “Inhibition rate (%) of tubulin polymerization” value (porcine brain tubulin) was 59.6%, the “binding rate (%) (colchicine competitive-binding)” value (biotinylated tubulin) was 92.9% and the IC50 (H1975) was 141 nM. For the same compound, the IC50 (A375) was 34.6 nM, the IC50 (U937) was 23.2 nM and the inhibition at 10 µM (KB cell) was 78.5%.
